Test results: US7074758B2, “Two gonadotropin releasing hormones and a method to isolate the same” (Council of Scientific and Industrial Research, priority 2002, dated 2006)
“Also recorded” adds a separate entry of the source. Read-outs that look alike come from different tables or passages of the source.

What was measured:
[1] = tested on: murrel pituitary cells; test: GtH release from murrel pituitary cell incubations, GtH measured by RIA; type: cell-based, Indian Murrel; details: for GtH released: Table 4, 2 μg GnRH fractions, mean ± SEM of five experiments, species of cells not given; for increase gonadotropin release: fold increase of gonadotropin release
Protocol: Meanwhile Jamaluddin et al, (Gen comp Endocrinology May 1989; 74(2): 190–8) of applicants laboratory developed a very dependable GnRH bioassay. Basic principle of this bioassay is to get the release of GTH from murrel primary pituitary cell culture and determine the amount of GTH released by GTH-RIA. […]
These three acetone fractions were extracted with petroleum ether (40–60° C.) to remove acetone, lipids and other hydrophobic substances. The final precipitates were centrifuged at 8,000 g for 15 min at 4° C. and the residues were stored at −80° C. until further use.

[2] = tested on: Catla catla pituitary cells; test: gonadotropin release from carp pituitaries in response to murrel GnRH I and II; type: cell-based; details: 2 μg GnRH fractions
Text: (§1) Meanwhile Jamaluddin et al, (Gen comp Endocrinology May 1989; 74(2): 190–8) of applicants laboratory developed a very dependable GnRH bioassay. Basic principle of this bioassay is to get the release of GTH from murrel primary pituitary cell culture and determine the amount of GTH released by GTH-RIA. […] Moreover, these two GnRHs act almost equally in different species of carp indicating no species barrier (As shown below in Table 3).

[3] = tested on: Cirrhinus mrigala pituitary cells; test: as above; type: cell-based; details: 2 μg GnRH fractions
Text: as §1

[4] = tested on: Cyprinus carpio pituitary cells; test: as above; type: cell-based; details: 2 μg GnRH fractions

Substance | GnRH activity on the basis of GTH release from in vitro pituitary cell culture [1] | GtH released [1] [ng/6 × 10^4 cells] | increase gonadotropin release [1] | GnRH activity on the basis of GTH release from in vitro pituitary cell culture ([1]; listed as QRP H) | GtH II released [2] [ng/6 × 10^4 cells] | GtH II released [3] [ng/6 × 10^4 cells] | GtH II released [4] [ng/6 × 10^4 cells] | GnRH activity on the basis of GTH release from in vitro pituitary cell culture ([1]; listed as SRP H)
QHWSAWRLPG (channa punctatus) [muGnRH I] | highly active | 73.3 ± 2.2 | about 30 times | GnRH was found to be located | 74.5 ± 2.32 | 72.0 ± 2.13 | 73.8 ± 2.51 | 
QHWSWGILPG (channa punctatus) [muGnRH II] | more active gonadotropin releasing hormone than muGnRH I; also recorded: highly active; also recorded: slightly more active | 79.2 ± 3.12 | about 35 times |  | 82.6 ± 3.02 | 80.1 ± 2.61 | 81.7 ± 3.12 | GnRH was found to be located
des-Gly^10,[D-Ala^6]-LHRH [GnRH superactive analogue, reference compound] |  | 68.0 ± 2.32 |  |  |  |  |  | 
mammalian GnRH: mammalian gonadotropin releasing hormone decapeptide, comparator (QHWSYGLRPG; Gonadoliberin-1; UniProt P01148 24-33, looked up) [reference compound] |  | 49.9 ± 2.02 |  |  |  |  |  | 
